Biological target: EGFR (human) (UniProt P00533)
Sequence (P00533 whole entry, looked up): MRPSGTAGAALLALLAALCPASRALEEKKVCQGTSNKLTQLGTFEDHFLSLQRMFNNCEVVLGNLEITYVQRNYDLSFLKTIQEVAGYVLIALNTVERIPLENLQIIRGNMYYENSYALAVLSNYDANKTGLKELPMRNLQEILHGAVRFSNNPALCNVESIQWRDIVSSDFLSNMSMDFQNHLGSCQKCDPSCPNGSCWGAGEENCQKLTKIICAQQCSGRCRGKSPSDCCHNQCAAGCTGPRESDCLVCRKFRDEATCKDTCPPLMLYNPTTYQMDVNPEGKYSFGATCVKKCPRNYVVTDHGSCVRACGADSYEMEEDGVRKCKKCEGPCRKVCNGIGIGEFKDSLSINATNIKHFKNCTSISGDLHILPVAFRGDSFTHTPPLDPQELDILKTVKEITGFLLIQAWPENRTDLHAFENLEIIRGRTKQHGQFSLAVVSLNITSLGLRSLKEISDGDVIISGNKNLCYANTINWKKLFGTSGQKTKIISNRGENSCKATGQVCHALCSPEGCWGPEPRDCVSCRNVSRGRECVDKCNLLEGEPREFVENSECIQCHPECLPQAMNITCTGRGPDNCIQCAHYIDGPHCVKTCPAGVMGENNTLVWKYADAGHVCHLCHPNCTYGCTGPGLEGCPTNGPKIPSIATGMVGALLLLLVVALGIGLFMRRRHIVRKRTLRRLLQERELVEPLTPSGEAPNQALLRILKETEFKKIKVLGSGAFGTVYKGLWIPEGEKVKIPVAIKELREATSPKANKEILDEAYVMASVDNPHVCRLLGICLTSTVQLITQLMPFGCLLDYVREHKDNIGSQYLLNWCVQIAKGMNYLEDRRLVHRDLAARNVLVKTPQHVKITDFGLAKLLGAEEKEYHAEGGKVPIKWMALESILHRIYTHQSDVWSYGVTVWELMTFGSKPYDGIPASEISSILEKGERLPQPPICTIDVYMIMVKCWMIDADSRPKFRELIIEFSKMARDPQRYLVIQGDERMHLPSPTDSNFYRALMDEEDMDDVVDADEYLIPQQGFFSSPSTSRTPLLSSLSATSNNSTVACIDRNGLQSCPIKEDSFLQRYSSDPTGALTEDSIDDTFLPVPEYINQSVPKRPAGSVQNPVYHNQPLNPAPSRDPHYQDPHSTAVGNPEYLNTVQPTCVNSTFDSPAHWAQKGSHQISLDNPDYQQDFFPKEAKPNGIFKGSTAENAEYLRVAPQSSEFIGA

Structure (SMILES) | IC50 [nM]
NC(=O)C1CCN(Cc2ccc(-c3cc4nccc(Nc5ccc6[nH]ccc6c5)c4s3)cc2)CC1 | 7
c1ccc(-c2cc3nccc(Nc4ccc5[nH]ccc5c4)c3s2)cc1 | 68
CC(C)(CO)NCc1ccc(-c2cc3nccc(Nc4ccc5[nH]ccc5c4)c3s2)cc1 | 8
NC(=O)C1CCN(Cc2ccc(-c3cc4ncnc(Nc5ccc6[nH]ccc6c5)c4s3)cc2)CC1 | 1
c1csc(-c2cc3nccc(Nc4ccc5[nH]ccc5c4)c3s2)c1 | 39
c1nc(Nc2ccc3[nH]ccc3c2)c2sc(-c3ccc(NCCN4CCCC4)cc3)cc2n1 | 1
c1cn(CCCc2ccc(-c3cc4ncnc(Nc5ccc6[nH]ccc6c5)c4s3)cc2)cn1 | 1
c1cn(CCCc2ccc(-c3cc4nccc(Nc5ccc6[nH]ccc6c5)c4s3)cc2)cn1 | 5
CC(=O)NCCNCc1ccc(-c2cc3nccc(Nc4ccc5[nH]ccc5c4)c3s2)cc1 | 5
CC(=O)NCCNCc1ccc(-c2cc3ncnc(Nc4ccc5[nH]ccc5c4)c3s2)cc1 | 2

From the Kinase Knowledgebase extract (Sharma et al. 2016)
